{
  "source": "patent US10173988B2",
  "about": "“N2-(3,4-dimethylphenyl)-6-((4-(p-tolyl)piperazin-1-yl)methyl)-1,3,5-triazine-2,4-diamine” (GLUCOX BIOTECH AB, priority 2015, dated 2019)",
  "key": {"Nox2": {"target": "Nox2 (Homo sapiens (Human), UniProt P04839)", "sequence (P04839 2-570)": "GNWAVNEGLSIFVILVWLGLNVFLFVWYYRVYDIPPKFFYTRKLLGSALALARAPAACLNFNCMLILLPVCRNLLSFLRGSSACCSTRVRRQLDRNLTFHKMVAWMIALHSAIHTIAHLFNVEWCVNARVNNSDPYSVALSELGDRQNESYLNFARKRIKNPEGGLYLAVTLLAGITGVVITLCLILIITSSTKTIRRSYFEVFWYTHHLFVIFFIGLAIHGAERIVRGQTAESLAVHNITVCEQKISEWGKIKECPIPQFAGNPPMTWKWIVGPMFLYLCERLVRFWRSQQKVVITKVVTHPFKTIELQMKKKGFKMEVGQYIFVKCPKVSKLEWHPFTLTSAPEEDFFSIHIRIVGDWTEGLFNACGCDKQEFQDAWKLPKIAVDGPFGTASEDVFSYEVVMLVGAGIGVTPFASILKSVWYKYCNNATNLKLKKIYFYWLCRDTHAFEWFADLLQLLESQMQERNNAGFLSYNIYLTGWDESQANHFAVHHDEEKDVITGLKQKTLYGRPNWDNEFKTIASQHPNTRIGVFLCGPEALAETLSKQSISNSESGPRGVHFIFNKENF", "sequence (P13498 2-195 partner)": "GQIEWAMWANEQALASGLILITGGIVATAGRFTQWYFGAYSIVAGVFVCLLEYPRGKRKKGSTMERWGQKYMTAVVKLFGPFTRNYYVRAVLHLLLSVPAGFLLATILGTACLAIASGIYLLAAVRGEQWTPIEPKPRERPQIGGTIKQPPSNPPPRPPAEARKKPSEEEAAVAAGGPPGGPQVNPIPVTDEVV", "assay": "Nox2 whole cell assay in isolated neutrophils (isoluminol, PMA-stimulated)", "format": "cell-based", "settings": "PMA 30 ng/ml", "excerpt": "Cells: Human blood was purchased in buffy coat, prepared the same day for isolation of neutrophils, from Labjoy AB, Lund, Sweden. Blood components were separated by density gradient centrifugation using Ficoll-Paque Plus. Plasma, PBMCs and Ficoll were removed before erythrocytes were removed by dextran sedimentation. Remaining erythrocytes were lyses before neutrophils were washed and counted. Isolated neutrophils were kept on ice resuspended in HBSS without Mg and Ca until assayed.\nBuffers: The isoluminol buffer contained Isoluminol (0.175 mg/ml) and HRP fraction II (1.75 U/ml). The buffer was prepared by diluting these ingredients at 4× working concentration in HBSS.\nProcedures: Compounds (Nox inhibitors) were diluted at 4× working concentration and titrated from 100 μM to 0.006 μM in 1:4 steps. PMA was diluted in Isoluminol buffer at 4× working concentration for a final concentration of 30 ng/ml. […] 25 μl diluted compound or control/well were added to a white 96-well plate. 25 μl/well of PMA diluted in Isoluminol buffer was added to each well. To non-stimulated control wells only Isoluminol buffer was added. Neutrophils were washed and resuspended at 2×10^6 cells/ml in HBSS with Mg and Ca just before adding 50 μl of the neutrophil cell suspension/well, which was followed by immediate initiation of luminescence measurement. Luminescence was measured using a FluoStar Optima (BMG Labtech). Graphs were performed using Prism 5 for Mac OS X (Prism 5.0 Software, San Diego Calif. USA)."}, "human Nox1": {"target": "human Nox1 (Homo sapiens (Human), UniProt Q9Y5S8)", "sequence (Q9Y5S8 whole entry)": "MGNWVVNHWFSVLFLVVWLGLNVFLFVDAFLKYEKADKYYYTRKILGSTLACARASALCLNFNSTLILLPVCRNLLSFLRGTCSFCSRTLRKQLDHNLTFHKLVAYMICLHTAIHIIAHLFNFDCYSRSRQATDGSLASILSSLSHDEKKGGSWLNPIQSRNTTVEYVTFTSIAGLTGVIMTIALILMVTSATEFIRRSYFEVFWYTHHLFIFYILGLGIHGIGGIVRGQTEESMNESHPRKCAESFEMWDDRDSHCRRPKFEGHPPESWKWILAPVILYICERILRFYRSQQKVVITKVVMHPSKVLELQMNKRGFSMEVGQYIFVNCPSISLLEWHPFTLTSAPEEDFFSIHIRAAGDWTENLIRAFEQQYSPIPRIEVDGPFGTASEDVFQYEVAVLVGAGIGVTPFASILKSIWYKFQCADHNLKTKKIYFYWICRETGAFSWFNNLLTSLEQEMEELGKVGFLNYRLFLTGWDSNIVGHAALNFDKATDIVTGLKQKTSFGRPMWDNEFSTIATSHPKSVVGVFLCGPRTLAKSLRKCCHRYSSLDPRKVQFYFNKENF", "sequence (P13498 2-195 partner)": "as the sequence (P13498 2-195 partner) above", "assay": "Nox1 whole cell luminescence assay (luminol, PMA-stimulated)", "format": "cell-based", "settings": "CHO cells stably expressing human Nox1", "method": "CHO cells modified to stably express human Nox1 were grown in DMEM/F12 gibco 31331 containing 10% FBS and 1% pen/strep at 37° C. in air with 5% CO2. Cells were collected from cultures by Trypsin mediated detachment of adherent cells.\nA luminescence assay was used that measures the production of reactive oxygen species in whole cells. Luminol reacts with superoxide and emits light and light is measured with luminometer (Synergy/2 microplate reader, BioTek).\nInhibitors were diluted in a compound plate in DMSO (100%) then transferred to Hanks buffer solution and in assay plate DMSO were 2% in all the wells.\nAssay procedure, final well volume 100 μl, 96-well plate: Inhibitors (20 μl) were added, then cell suspension was (100 000 cells/well), incubate 37° C. for 30 min, add PMA (0.9 μM/well) to Luminol reaction mix (Luminol 0.1 mM/well and HRP 3.2 U/well) then this stimulation mix into wells. The plate were then immediately read (steps 5 min each reading) and for 1 h. Data was calculated for the linear part of the curve and IC50 determined.\nCompounds (Nox inhibitors) were diluted at 3× working concentration and titrated from 200 μM to 0.003 μM in 11 steps"}, "Caco-2 cell monolayers": {"system": "Caco-2 cell monolayers", "assay": "Caco-2 permeability assay", "format": "in vitro ADME", "settings": "mass balance", "method": "(§1) Caco-2 membrane permeability was performed in accordance with published protocols. [Hubatch] Caco-2 cell monolayers (passage 94-105) were grown on permeable filter support and used for transport study on day 21 after seeding. Prior to the experiment a drug solution of 10 μM was prepared and warmed to 37° C.\n(§2) The Caco-2 filters were washed with prewarmed HBSS prior to the experiment, and thereafter experiment was started by applying the donor solution on the apical side or basolateral side, depending on which direction that was monitored. The transport experiments were carried out at pH 7.4 in both the apical and basolateral chambers. The experiments were performed at 37° C. and with a stirring rate of 500 rpm. The receiver compartment was sampled at 15, 30, and 60 min, and at 60 min also a final sample from the donor chamber was taken in order to calculate the mass balance of the compound. Directly after the termination of experiment the filter inserts were washed with prewarmed HBSS and the membrane integrity was checked. This was performed by trans-epithelial electrical resistance (TEER) measurement. The experiment was validated by inclusion of the para-cellular marker 14Cmannitoland monitoring its permeability during the experiments. Mannitol is a para-cellular marker used for cell monolayer integrity measurements.\n(§3) Test compounds were thus added to either the apical or basolateral side of the Caco-2 cell layer, to measure permeability in the absorptive (apical to basolateral, Papp (a-b)) or secretive (basolateral to apical Papp (a-b) directions, respectively. The efflux is calculated as Papp (b-a) divided by Papp (a-b). The results are presented in Table 3."}, "[1]": {"assay": "Caco-2 permeability assay", "format": "in vitro ADME", "settings": "human, Caco-2; for efflux ratio at 60 min: Papp (b-a) divided by Papp (a-b); for Papp A→B at 60 min: apical to basolateral; for Papp A→B at 60 min / Papp B→A at 60 min: pH 7.4, 37° C., test concentration 1 to 10 μM; for Papp B→A at 60 min: basolateral to apical", "method": "as §1, §2, §3"}, "Nox4": {"target": "Nox4 (Homo sapiens (Human), UniProt Q9NPH5)", "sequence (Q9NPH5 whole entry, species assumed)": "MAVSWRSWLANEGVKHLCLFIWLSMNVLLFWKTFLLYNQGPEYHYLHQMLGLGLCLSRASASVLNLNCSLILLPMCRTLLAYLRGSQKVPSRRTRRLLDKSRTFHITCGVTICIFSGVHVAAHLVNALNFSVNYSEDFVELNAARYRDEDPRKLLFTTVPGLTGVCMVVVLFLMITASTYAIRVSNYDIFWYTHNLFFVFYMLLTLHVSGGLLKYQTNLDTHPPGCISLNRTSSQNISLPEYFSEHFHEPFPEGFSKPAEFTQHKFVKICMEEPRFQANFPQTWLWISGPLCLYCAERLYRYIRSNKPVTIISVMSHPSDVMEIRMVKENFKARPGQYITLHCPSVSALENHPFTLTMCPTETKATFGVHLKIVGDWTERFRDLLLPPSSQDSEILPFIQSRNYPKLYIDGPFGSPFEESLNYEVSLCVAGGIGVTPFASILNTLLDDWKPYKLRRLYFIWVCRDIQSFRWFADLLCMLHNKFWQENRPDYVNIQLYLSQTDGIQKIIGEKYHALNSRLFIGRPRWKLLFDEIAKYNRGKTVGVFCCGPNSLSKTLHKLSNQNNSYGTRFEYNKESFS", "sequence (P13498 2-195 partner, species assumed)": "as the sequence (P13498 2-195 partner) above", "assay": "Nox4 whole cell assay (Amplex red, hydrogen peroxide)", "format": "cell-based", "settings": "HEK (CJ Nox4) cells stably expressing Nox4", "method": "Cells: HEK (CJ Nox4) stably expressing Nox4 was purchased from Redoxis AB (Lund). The adherent cells were cultivated in RPMI 1640 with L-Glutamine were supplemented with FBS (10%), penicillin (10 U/ml) streptomycin (100 μg/ml) and neomycin (200 μg/ml) at 37° C. in air with 5% CO^2.\nHydrogen peroxide produced by Nox4 was measured (fluorescence emission: 590 and excitation: 544) using Amplex red (Molecular Probes) in Fluorescan Ascent plate reader Type 374. Cells were collected from cultures by Trypsin mediated detachment of adherent cells. Cells were seeded in 96-well plates at a density of 50 000 cells in […] assay volume. […] Nox4 activity was measured up to 100 min with readings every minute. […] Y-axes: turnover of hydrogen peroxide; x-axes: concentration of inhibitor. Inhibitors were diluted in a compound plate in DMSO (100%) then transferred to Hanks buffer solution and in assay plate DMSO were 2% in all the wells.\nCompounds (Nox inhibitors) were diluted at 3× working concentration and titrated from 200 μM to 0.003 μM in 11 steps."}},
  "data": [
    {"smiles": "Cc1ccc(Nc2nc(N)nc(CN3CCN(c4ccc(Cl)cc4)CC3)n2)cc1C", "note": "[D, 6-((4-(4-chlorophenyl)piperazin-1-yl)methyl)-N^2-(3,4-dimethylphenyl)-1,3,5-triazine-2,4-diamine]", "values": [
      {"measurement": "IC50", "setting": "Nox2", "value": 15, "unit": "µM"},
      {"measurement": "IC50", "setting": "human Nox1", "value": 200, "unit": "µM"},
      {"measurement": "MR", "setting": "Caco-2 cell monolayers; a-b direction", "value": 40, "unit": "%"},
      {"measurement": "MR", "setting": "Caco-2 cell monolayers; b-a direction", "value": 16, "unit": "%"},
      {"measurement": "efflux ratio at 60 min", "setting": "[1]", "value": 17},
      {"measurement": "Papp A→B at 60 min", "setting": "[1]", "value": "1.9 ± 0.2", "unit": "×10⁻⁶ cm/s"},
      {"measurement": "Papp B→A at 60 min", "setting": "[1]", "value": "33 ± 11", "unit": "×10⁻⁶ cm/s"},
      {"measurement": "IC50", "setting": "Nox4", "value": 1680, "unit": "nM"}
    ]},
    {"smiles": "COc1cccc(N2CCN(Cc3nc(N)nc(Nc4ccc(C)c(C)c4)n3)CC2)c1", "note": "[A, N^2-(3,4-dimethylphenyl)-6-((4-(3-methoxyphenyl)piperazin-1-yl)methyl)-1,3,5-triazine-2,4-diamine]", "values": [
      {"measurement": "IC50", "setting": "Nox2", "value": 1.68, "unit": "µM"},
      {"measurement": "IC50", "setting": "human Nox1", "value": 66, "unit": "µM"},
      {"measurement": "MR", "setting": "Caco-2 cell monolayers; a-b direction", "value": 17, "unit": "%"},
      {"measurement": "MR", "setting": "Caco-2 cell monolayers; b-a direction", "value": 12, "unit": "%"},
      {"measurement": "efflux ratio at 60 min", "setting": "[1]", "value": 1},
      {"measurement": "Papp A→B at 60 min", "setting": "[1]", "value": "35 ± 4", "unit": "×10⁻⁶ cm/s"},
      {"measurement": "Papp B→A at 60 min", "setting": "[1]", "value": "34 ± 4", "unit": "×10⁻⁶ cm/s"},
      {"measurement": "IC50", "setting": "Nox4", "value": 1680, "unit": "nM"}
    ]},
    {"smiles": "COc1cccc(N2CCN(Cc3nc(N)nc(Nc4ccc(C)c(Cl)c4)n3)CC2)c1", "note": "[B, N^2-(3-chloro-4-methylphenyl)-6-((4-(3-methoxyphenyl)piperazin-1-yl)methyl)-1,3,5-triazine-2,4-diamine]", "values": [
      {"measurement": "IC50", "setting": "Nox2", "value": 17, "unit": "µM"},
      {"measurement": "IC50", "setting": "human Nox1", "value": 22, "unit": "µM"},
      {"measurement": "MR", "setting": "Caco-2 cell monolayers; a-b direction", "value": 41, "unit": "%"},
      {"measurement": "MR", "setting": "Caco-2 cell monolayers; b-a direction", "value": 41, "unit": "%"},
      {"measurement": "efflux ratio at 60 min", "setting": "[1]", "value": 54},
      {"measurement": "Papp A→B at 60 min", "setting": "[1]", "value": "0.8 ± 0.2", "unit": "×10⁻⁶ cm/s"},
      {"measurement": "Papp B→A at 60 min", "setting": "[1]", "value": "43 ± 5", "unit": "×10⁻⁶ cm/s"},
      {"measurement": "IC50", "setting": "Nox4", "value": 840, "unit": "nM"}
    ]},
    {"smiles": "Cc1ccc(N2CCN(Cc3nc(N)nc(Nc4ccc(C)c(C)c4)n3)CC2)cc1", "note": "[inventive, N^2-(3,4-dimethylphenyl)-6-((4-(p-tolyl)piperazin-1-yl)methyl)-1,3,5-triazine-2,4-diamine]", "values": [
      {"measurement": "IC50", "setting": "human Nox1", "value": 66, "unit": "µM"},
      {"measurement": "MR", "setting": "Caco-2 cell monolayers; a-b direction", "value": 13, "unit": "%"},
      {"measurement": "MR", "setting": "Caco-2 cell monolayers; b-a direction", "value": 14, "unit": "%"},
      {"measurement": "Papp A→B at 60 min", "setting": "[1]", "value": "12 ± 1.6", "unit": "×10⁻⁶ cm/s"},
      {"measurement": "Papp B→A at 60 min", "setting": "[1]", "value": "43 ± 5.8", "unit": "×10⁻⁶ cm/s"}
    ]},
    {"smiles": "Cc1cccc(N2CCN(Cc3nc(N)nc(Nc4ccc(C)c(C)c4)n3)CC2)c1", "note": "[C, N^2-(3,4-dimethylphenyl)-6-((4-(m-tolyl)piperazin-1-yl)methyl)-1,3,5-triazine-2,4-diamine]", "values": [
      {"measurement": "IC50", "setting": "Nox2", "value": 59, "unit": "µM"},
      {"measurement": "IC50", "setting": "human Nox1", "value": 162, "unit": "µM"},
      {"measurement": "MR", "setting": "Caco-2 cell monolayers; a-b direction", "value": 37, "unit": "%"},
      {"measurement": "MR", "setting": "Caco-2 cell monolayers; b-a direction", "value": 67, "unit": "%"},
      {"measurement": "efflux ratio at 60 min", "setting": "[1]", "value": 37},
      {"measurement": "Papp A→B at 60 min", "setting": "[1]", "value": "2.4 ± 0.1", "unit": "×10⁻⁶ cm/s"},
      {"measurement": "Papp B→A at 60 min", "setting": "[1]", "value": "89 ± 27", "unit": "×10⁻⁶ cm/s"},
      {"measurement": "IC50", "setting": "Nox4", "value": 1680, "unit": "nM"}
    ]}
  ]
}
